Calls of active or inactive are those of the source. No cut-off for these calls is given here.
Experiments:
[1] = molecular target: NT-3 growth factor receptor (Homo sapiens) (UniProt Q16288); conditions: Compound concentration 1000.0 nM
[2] = molecular target: 5-hydroxytryptamine receptor 1D (Homo sapiens) (UniProt P28221); conditions: Compound concentration 10.0 uM
[3] = molecular target: 5-hydroxytryptamine receptor 7 (Homo sapiens) (UniProt P34969); conditions: Compound concentration 10.0 uM
[4] = molecular target: Serine/threonine-protein kinase DCLK2 (Homo sapiens) (UniProt Q8N568); conditions: Compound concentration 1000.0 nM
[5] = molecular target: 5-hydroxytryptamine receptor 5A (Homo sapiens) (UniProt P47898); conditions: Compound concentration 10.0 uM
[6] = tested on: Tyrosine-protein kinase ABL1 (Homo sapiens), P00519 [F317L]; conditions: Compound concentration 1000.0 nM
[7] = molecular target: Death-associated protein kinase 3 (Homo sapiens, UniProt O43293); assay: Inhibition of DAPK3 at compound concentration of 10.0 uM using the ScanMax (DiscoverX)
[8] = molecular target: Mitogen-activated protein kinase kinase kinase 9 (Homo sapiens) (UniProt P80192); conditions: Compound concentration 1000.0 nM
[9] = molecular target: Alpha-1A adrenergic receptor (Homo sapiens) (UniProt P35348); conditions: Compound concentration 10.0 uM
[10] = molecular target: Activin receptor type-1B (Homo sapiens) (UniProt P36896); conditions: Compound concentration 1000.0 nM
[11] = molecular target: Histamine H1 receptor (Homo sapiens) (UniProt P35367); conditions: Compound concentration 10.0 uM
[12] = molecular target: cGMP-dependent protein kinase 2 (Homo sapiens) (UniProt Q13237); conditions: Compound concentration 1000.0 nM
[13] = molecular target: Dual specificity protein kinase TTK (Homo sapiens) (UniProt P33981); conditions: Compound concentration 1000.0 nM
[14] = molecular target: G protein-coupled receptor kinase 3 (Homo sapiens, UniProt P35626); assay: Inhibition of GRK3 at compound concentration of 10.0 uM using the ScanMax (DiscoverX)
[15] = molecular target: Muscarinic acetylcholine receptor M4 (Homo sapiens) (UniProt P08173); conditions: Compound concentration 10.0 uM
[16] = molecular target: Serine/threonine-protein kinase N1 (Homo sapiens) (UniProt Q16512); conditions: Compound concentration 1000.0 nM
[17] = molecular target: Cyclin-dependent kinase 8 (Homo sapiens, UniProt P49336); assay: Inhibition of CDK8 at compound concentration of 10.0 uM using the ScanMax (DiscoverX)
[18] = molecular target: Macrophage migration inhibitory factor (Rattus norvegicus, UniProt P30904); assay: Scintillation proximity assay (SPA) measurement of selective [3H]-BTZO-1 binding to rMIF-His
[19] = molecular target: Muscarinic acetylcholine receptor M1 (Homo sapiens) (UniProt P11229); conditions: Compound concentration 10.0 uM
[20] = molecular target: GABA-A receptor; anion channel; assay: GPCRScan assay: inhibition of GABAA/BZP; format: protein-complex assay, Rattus norvegicus; design: radioligand conc. used [nm] 0.6 – 4.0, parental cells brain tissue
[21] = molecular target: Sigma non-opioid intracellular receptor 1 (Homo sapiens) (UniProt Q99720); conditions: Compound concentration 10.0 uM
[22] = molecular target: GABA-A receptor; anion channel (Rattus norvegicus) (UniProt O09028+P15431+P18506+P18508+P19969+P20236+P23574+P23576+P28471+P28473+P30191+P62813+P63079+P63138+Q91ZM7+Q9ES14); conditions: Compound concentration 10.0 uM
[23] = molecular target: Macrophage migration inhibitory factor (Homo sapiens, UniProt P14174); assay: Scintillation proximity assay (SPA) measurement of selective [3H]-BTZO-1 binding to hMIF-His
[24] = molecular target: T1, Macrophage migration inhibitory factor (Homo sapiens) (UniProt P14174); assay: Apoptosis inhibition
T1 sequence (whole entry): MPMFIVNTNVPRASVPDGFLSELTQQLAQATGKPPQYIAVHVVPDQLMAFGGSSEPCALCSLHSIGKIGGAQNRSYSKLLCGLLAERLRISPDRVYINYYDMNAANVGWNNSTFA

[25] = molecular target: 5-hydroxytryptamine receptor 6 (Homo sapiens) (UniProt P50406); conditions: Compound concentration 10.0 uM
[26] = molecular target: Sigma intracellular receptor 2 (Homo sapiens) (UniProt Q5BJF2); conditions: Compound concentration 10.0 uM

Chain of Activin receptor type-1B (Homo sapiens) (P36896 whole entry): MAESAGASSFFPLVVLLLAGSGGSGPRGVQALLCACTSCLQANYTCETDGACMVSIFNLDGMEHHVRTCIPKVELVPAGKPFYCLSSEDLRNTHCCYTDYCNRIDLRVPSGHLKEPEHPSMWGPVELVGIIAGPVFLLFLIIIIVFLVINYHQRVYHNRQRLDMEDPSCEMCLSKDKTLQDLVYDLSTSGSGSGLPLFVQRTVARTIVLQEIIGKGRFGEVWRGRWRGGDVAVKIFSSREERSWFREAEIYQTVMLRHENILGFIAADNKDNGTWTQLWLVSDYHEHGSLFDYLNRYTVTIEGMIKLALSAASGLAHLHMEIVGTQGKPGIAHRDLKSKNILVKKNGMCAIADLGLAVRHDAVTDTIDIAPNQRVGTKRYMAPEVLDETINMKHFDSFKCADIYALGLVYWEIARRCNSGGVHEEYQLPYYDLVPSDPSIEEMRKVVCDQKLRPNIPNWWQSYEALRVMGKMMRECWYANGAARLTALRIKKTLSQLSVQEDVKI
Chain of NT-3 growth factor receptor (Homo sapiens) (Q16288 32-839 limits assumed): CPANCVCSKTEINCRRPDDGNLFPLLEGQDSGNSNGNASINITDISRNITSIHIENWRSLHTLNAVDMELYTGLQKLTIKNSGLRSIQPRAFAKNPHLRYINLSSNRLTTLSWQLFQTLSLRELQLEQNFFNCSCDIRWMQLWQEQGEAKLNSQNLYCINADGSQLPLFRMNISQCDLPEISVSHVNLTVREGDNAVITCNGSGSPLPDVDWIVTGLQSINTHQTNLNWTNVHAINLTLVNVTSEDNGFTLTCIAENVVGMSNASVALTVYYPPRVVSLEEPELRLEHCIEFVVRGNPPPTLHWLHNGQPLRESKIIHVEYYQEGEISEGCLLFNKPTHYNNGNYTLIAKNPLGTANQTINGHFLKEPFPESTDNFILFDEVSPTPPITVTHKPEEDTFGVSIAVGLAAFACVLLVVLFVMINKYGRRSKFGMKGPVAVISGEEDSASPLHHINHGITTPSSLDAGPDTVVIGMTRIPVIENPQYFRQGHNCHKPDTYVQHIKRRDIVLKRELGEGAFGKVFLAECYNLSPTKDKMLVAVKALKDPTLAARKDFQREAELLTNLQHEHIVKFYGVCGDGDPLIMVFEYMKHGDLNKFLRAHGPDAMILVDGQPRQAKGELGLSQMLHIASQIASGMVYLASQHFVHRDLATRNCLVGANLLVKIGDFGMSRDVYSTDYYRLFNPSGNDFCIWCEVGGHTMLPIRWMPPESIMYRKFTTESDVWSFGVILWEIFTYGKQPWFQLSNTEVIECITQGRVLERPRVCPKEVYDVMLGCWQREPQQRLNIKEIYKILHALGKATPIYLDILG
Chain of Dual specificity protein kinase TTK (Homo sapiens) (P33981 whole entry): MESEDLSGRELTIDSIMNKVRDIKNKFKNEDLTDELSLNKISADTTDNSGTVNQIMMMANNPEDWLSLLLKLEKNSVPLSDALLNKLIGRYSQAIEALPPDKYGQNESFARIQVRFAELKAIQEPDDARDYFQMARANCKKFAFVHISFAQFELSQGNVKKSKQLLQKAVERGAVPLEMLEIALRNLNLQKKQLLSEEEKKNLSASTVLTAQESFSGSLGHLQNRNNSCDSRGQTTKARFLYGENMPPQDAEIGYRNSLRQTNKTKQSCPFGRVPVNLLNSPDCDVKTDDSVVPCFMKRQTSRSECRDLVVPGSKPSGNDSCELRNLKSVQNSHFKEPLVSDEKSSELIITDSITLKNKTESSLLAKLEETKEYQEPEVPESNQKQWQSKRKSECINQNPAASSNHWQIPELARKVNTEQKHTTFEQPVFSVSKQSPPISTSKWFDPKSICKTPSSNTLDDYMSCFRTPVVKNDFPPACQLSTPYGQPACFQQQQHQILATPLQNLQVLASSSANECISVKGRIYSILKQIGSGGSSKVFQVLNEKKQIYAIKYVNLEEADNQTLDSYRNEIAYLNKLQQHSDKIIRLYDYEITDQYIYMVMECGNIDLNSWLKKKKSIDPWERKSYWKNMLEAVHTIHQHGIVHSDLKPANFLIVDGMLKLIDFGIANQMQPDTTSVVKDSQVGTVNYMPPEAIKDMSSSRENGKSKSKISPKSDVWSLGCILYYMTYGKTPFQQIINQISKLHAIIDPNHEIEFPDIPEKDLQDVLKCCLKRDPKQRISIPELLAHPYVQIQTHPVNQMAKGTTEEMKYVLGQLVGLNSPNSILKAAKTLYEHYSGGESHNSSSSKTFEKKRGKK
Chain of Tyrosine-protein kinase ABL1 (Homo sapiens), P00519 [F317L] (P00519 whole entry F317L): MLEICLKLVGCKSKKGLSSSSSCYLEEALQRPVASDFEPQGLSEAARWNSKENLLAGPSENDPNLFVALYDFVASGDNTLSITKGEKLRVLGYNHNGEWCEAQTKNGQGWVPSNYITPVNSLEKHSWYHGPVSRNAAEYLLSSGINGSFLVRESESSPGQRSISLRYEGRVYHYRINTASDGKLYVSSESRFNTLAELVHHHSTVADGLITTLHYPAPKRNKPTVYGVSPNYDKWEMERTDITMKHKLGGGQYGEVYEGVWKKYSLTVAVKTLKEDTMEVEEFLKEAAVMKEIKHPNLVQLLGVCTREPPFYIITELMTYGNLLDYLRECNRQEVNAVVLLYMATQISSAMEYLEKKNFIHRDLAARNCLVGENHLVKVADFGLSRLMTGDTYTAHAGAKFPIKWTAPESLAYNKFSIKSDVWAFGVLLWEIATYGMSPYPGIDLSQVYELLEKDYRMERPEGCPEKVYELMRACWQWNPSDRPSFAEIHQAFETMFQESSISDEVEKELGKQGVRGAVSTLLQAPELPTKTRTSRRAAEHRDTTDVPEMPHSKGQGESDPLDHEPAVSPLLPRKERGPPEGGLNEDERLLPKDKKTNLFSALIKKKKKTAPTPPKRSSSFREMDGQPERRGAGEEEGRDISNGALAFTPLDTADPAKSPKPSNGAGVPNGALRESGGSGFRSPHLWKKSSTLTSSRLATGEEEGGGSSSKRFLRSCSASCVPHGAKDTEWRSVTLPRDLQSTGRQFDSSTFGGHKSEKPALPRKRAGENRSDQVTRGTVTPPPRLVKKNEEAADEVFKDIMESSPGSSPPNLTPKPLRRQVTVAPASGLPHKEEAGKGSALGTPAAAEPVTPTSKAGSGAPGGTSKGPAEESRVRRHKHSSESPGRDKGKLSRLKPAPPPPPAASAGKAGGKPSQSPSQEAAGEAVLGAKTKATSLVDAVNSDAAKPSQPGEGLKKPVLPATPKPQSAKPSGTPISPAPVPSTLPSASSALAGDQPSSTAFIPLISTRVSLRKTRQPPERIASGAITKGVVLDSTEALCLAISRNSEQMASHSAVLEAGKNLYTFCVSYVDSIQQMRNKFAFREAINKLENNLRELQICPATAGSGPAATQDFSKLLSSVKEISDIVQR
Chain of cGMP-dependent protein kinase 2 (Homo sapiens) (Q13237 whole entry): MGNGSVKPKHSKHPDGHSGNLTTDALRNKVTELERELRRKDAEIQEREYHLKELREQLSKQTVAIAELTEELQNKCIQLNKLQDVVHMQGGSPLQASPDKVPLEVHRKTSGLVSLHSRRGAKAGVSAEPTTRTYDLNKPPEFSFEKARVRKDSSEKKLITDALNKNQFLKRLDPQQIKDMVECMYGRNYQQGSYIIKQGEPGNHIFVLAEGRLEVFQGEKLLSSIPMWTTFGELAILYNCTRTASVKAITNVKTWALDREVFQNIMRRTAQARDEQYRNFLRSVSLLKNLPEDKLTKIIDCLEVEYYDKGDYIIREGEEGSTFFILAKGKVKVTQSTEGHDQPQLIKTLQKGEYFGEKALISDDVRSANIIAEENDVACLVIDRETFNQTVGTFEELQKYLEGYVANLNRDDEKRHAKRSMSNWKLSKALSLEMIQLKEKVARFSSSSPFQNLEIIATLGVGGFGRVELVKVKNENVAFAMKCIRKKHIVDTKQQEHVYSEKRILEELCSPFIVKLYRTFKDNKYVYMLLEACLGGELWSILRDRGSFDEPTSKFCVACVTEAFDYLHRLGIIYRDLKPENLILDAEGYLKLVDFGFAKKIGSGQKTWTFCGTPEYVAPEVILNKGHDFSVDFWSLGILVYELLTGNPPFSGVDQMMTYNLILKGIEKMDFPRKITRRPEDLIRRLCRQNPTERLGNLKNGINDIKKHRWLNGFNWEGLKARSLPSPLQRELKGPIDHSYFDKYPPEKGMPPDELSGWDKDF
Chain of Serine/threonine-protein kinase N1 (Homo sapiens) (Q16512 2-942 limits assumed): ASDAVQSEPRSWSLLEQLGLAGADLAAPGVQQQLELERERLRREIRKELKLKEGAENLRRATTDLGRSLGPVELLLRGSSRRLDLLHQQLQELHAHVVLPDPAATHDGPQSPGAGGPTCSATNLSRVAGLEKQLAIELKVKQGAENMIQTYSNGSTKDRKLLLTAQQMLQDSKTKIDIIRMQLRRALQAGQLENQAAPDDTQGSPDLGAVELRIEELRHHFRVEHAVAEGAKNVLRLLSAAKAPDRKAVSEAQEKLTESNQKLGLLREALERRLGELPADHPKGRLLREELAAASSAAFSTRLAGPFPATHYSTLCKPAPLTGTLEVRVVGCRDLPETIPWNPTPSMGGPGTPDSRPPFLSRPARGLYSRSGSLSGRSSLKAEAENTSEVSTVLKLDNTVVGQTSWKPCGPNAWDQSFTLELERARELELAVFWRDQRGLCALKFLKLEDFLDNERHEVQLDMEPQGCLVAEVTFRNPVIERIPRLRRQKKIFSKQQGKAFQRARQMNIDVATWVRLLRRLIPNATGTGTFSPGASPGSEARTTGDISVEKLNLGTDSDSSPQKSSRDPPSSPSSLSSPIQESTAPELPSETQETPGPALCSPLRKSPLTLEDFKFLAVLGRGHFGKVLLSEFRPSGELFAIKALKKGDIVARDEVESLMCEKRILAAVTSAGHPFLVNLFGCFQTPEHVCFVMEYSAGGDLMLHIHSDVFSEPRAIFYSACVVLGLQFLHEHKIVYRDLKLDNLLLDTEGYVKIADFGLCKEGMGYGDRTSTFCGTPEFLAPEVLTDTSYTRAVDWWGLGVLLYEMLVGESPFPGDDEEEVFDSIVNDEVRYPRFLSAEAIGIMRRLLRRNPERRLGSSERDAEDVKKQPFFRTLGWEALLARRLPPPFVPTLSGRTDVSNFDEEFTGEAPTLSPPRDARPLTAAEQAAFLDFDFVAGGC

O=C1NC(c2ccccn2)Sc2ccccc21 (centres undefined) [BTZO-4]
residual activity [1]: 81%
inhibition [2]: -4.84%
inhibition [3]: -5.1%
residual activity [4]: 92%
inhibition [5]: 1.93%
residual activity [6]: 100%
Kd [7]: > 10000 nM (not active)
residual activity [8]: 88%
inhibition [9]: -9.97%
residual activity [10]: 99%
inhibition [11]: 49.9%
residual activity [12]: 90%
residual activity [13]: 91%
Kd [14]: > 10000 nM (not active)
inhibition [15]: -4.7%
residual activity [16]: 60%

O=c1nc(-c2ccccn2)sc2ccccc12 [BTZO-1]
Kd [17]: > 10000 nM (not active)
residual activity [1]: 72%
Kd [18]: 157 nM (active)
residual activity [4]: 97%
inhibition [19]: -5.27%
residual activity [6]: 100%
Ki [20]: 934 nM
inhibition [21]: 14%
residual activity [8]: 85%
inhibition [22]: 6.23%
residual activity [10]: 100%
Kd [23]: 68.6 nM (active)
residual activity [12]: 96%
MEC1.5 [24]: 16 nM
residual activity [13]: 100%
inhibition [25]: -1.33%
inhibition [26]: 12.5%
residual activity [16]: 77%
